Laboratory results from ChEMBL document CHEMBL5729561, “Compounds and uses thereof” (2023).

Assay: On day 0 cells were seeded in 30 μL media into each well of 384-well cell culture plates. The seeding density was 8000 cells/well. On day 1, cells were treated with 30 nL DMSO or 30 nL of 3-fold serially DMSO-diluted compounds (10 points in duplicates with 1 μM as final top dose). Subsequently plates were incubated for 6 hours in a standard tissue culture incubator and equilibrated at room temperature for 15 minutes. Nanoluciferase activity was measured by adding 15 μL of freshly prepared Nano-Glo Luciferase Assay Reagent (Promega N1130), shaking the plates for 10 minutes and reading the bioluminescence using an EnVision reader.
Format: cell-based

SMILES	IC50
COc1cc(-c2cn(C)c(=O)c3cnccc23)cc(OC)c1CN1CCC2(CC1)CN(C(=O)CCOCCOc1cccc3c1C(=O)N(C1CCC(=O)NC1=O)C3=O)C2 (stereo not drawn)	in the range around 55 nM
COc1cc(-c2cn(C)c(=O)c3cnccc23)cc(OC)c1ON1CC2(CC(NC(=O)CCOCCOc3ccc4c(c3)C(=O)N(C3CCC(=O)NC3=O)C4=O)C2)C1 (stereo not drawn)	in the range around 550 nM
COc1cc(-c2cn(C)c(=O)c3cnccc23)cc(OC)c1CN1CCC2(C[C@@H]2NC(=O)CCOCCOc2cccc3c2C(=O)N(C2CCC(=O)NC2=O)C3=O)C1 (stereo partly drawn)	in the range around 550 nM
COc1cc(-c2cn(C)c(=O)c3cnccc23)cc(OC)c1CN1CC2(CCC2NC(=O)CCOCCOc2cccc3c2C(=O)N(C2CCC(=O)NC2=O)C3=O)C1 (stereo not drawn)	> 1000 nM
COc1cc(-c2cn(C)c(=O)c3cnccc23)cc(OC)c1CN1CCC2(C[C@H]2NC(=O)CCOCCOc2cccc3c2C(=O)N(C2CCC(=O)NC2=O)C3=O)C1 (stereo partly drawn)	in the range around 55 nM
COc1cc(-c2cn(C)c(=O)c3cnccc23)cc(OC)c1CN1CCC2CCN(C(=O)CCOCCOc3ccc4c(c3)C(=O)N(C3CCC(=O)NC3=O)C4=O)CC21 (stereo not drawn)	< 10 nM
COc1cc(-c2cn(C)c(=O)c3cnccc23)cc(OC)c1CN(C)CCc1cn(CCCCOc2ccc3c(c2)C(=O)N(C2CCC(=O)NC2=O)C3=O)nn1 (stereo not drawn)	in the range around 55 nM
COc1cc(-c2cn(C)c(=O)c3cnccc23)cc(OC)c1CN1CCC2(CCN(C(=O)CCOCCOc3ccc4c(c3)C(=O)N(C3CCC(=O)NC3=O)C4=O)CC2)C1 (stereo not drawn)	in the range around 55 nM
COc1cc(-c2cn(C)c(=O)c3cnccc23)cc(OC)c1CN1CCC2CCN(C(=O)CCOCCOc3cccc4c3C(=O)N(C3CCC(=O)NC3=O)C4=O)CC21 (stereo not drawn)	in the range around 55 nM
COc1cc(-c2cn(C)c(=O)c3cnccc23)cc(OC)c1CN1CCC(C2CCN(C(=O)CCOCCOc3cccc4c3C(=O)N(C3CCC(=O)NC3=O)C4=O)C2)CC1 (stereo not drawn)	in the range around 55 nM
COc1cc(-c2cn(C)c(=O)c3cnccc23)cc(OC)c1CN1CCC12CN(C(=O)CCOCCOc1ccc3c(c1)C(=O)N(C1CCC(=O)NC1=O)C3=O)C2 (stereo not drawn)	in the range around 550 nM
COc1cc(-c2cn(C)c(=O)c3cnccc23)cc(OC)c1CN1CC2CN(C(=O)CCOCCOc3ccc4c(c3)C(=O)N(C3CCC(=O)NC3=O)C4=O)CCC21 (stereo not drawn)	< 10 nM
COc1cc(-c2cn(C)c(=O)c3cnccc23)cc(OC)c1CN1CCC12CCN(C(=O)CCOCCOc1cccc3c1C(=O)N(C1CCC(=O)NC1=O)C3=O)C2 (stereo not drawn)	in the range around 550 nM
COc1cc(-c2cn(C)c(=O)c3cnccc23)cc(OC)c1CN(C)Cc1cn(CCOc2ccc3c(c2)C(=O)N(C2CCC(=O)NC2=O)C3=O)nn1 (stereo not drawn)	in the range around 550 nM
COc1cc(-c2cn(C)c(=O)c3cnccc23)cc(OC)c1CN1CCC(OC2CCN(C(=O)CCOCCOc3cccc4c3C(=O)N(C3CCC(=O)NC3=O)C4=O)C2)CC1 (stereo not drawn)	in the range around 55 nM
COc1cc(-c2cn(C)c(=O)c3cnccc23)cc(OC)c1CN1CC2(CCN(C(=O)CCOCCOc3cccc4c3C(=O)N(C3CCC(=O)NC3=O)C4=O)CC2)C1 (stereo not drawn)	in the range around 550 nM
COc1cc(-c2cn(C)c(=O)c3cnccc23)cc(OC)c1CN1CCC2(CCN(C(=O)CCOCCOc3cccc4c3C(=O)N(C3CCC(=O)NC3=O)C4=O)C2)C1 (stereo not drawn)	< 10 nM
COc1cc(-c2cn(C)c(=O)c3cnccc23)cc(OC)c1CN1CCC(COC2CCN(C(=O)CCOCCOc3cccc4c3C(=O)N(C3CCC(=O)NC3=O)C4=O)C2)CC1 (stereo not drawn)	in the range around 55 nM
COc1cc(-c2cn(C)c(=O)c3cnccc23)cc(OC)c1CN1CC2(CC(NC(=O)CCOCCOc3cccc4c3C(=O)N(C3CCC(=O)NC3=O)C4=O)C2)C1 (stereo not drawn)	in the range around 55 nM

SMILES	IC50
COc1cc(-c2cn(C)c(=O)c3cnccc23)cc(OC)c1CN(C)Cc1cn(CCCCOc2ccc3c(c2)C(=O)N(C2CCC(=O)NC2=O)C3=O)nn1 (stereo not drawn)	in the range around 55 nM
COc1cc(-c2cn(C)c(=O)c3cnccc23)cc(OC)c1CN1CC2(CCC2NC(=O)CCOCCOc2ccc3c(c2)C(=O)N(C2CCC(=O)NC2=O)C3=O)C1 (stereo not drawn)	in the range around 550 nM
COc1cc(-c2cn(C)c(=O)c3cnccc23)cc(OC)c1CN1CCC2(C1)CN(C(=O)CCOCCOc1ccc3c(c1)C(=O)N(C1CCC(=O)NC1=O)C3=O)C2 (stereo not drawn)	in the range around 55 nM
COc1cc(-c2cn(C)c(=O)c3cnccc23)cc(OC)c1CN1CC2(CCN(C(=O)CCOCCOc3ccc4c(c3)C(=O)N(C3CCC(=O)NC3=O)C4=O)C2)C1 (stereo not drawn)	< 10 nM
COc1cc(-c2cn(C)c(=O)c3cnccc23)cc(OC)c1CN1CC(CCNC(=O)CCOCCOc2ccc3c(c2)C(=O)N(C2CCC(=O)NC2=O)C3=O)C1 (stereo not drawn)	in the range around 550 nM
COc1cc(-c2cn(C)c(=O)c3cnccc23)cc(OC)c1CN(C)Cc1cn(CCCOc2ccc3c(c2)C(=O)N(C2CCC(=O)NC2=O)C3=O)nn1 (stereo not drawn)	in the range around 550 nM
COc1cc(-c2cn(C)c(=O)c3cnccc23)cc(OC)c1ON1CCC2(CCN(C(=O)CCOCCOc3cccc4c3C(=O)N(C3CCC(=O)NC3=O)C4=O)CC2)C1 (stereo not drawn)	< 10 nM
COc1cc(-c2cn(C)c(=O)c3cnccc23)cc(OC)c1CN1CCC2(C1)CN(C(=O)CCOCCOc1cccc3c1C(=O)N(C1CCC(=O)NC1=O)C3=O)C2 (stereo not drawn)	in the range around 55 nM
COc1cc(-c2cn(C)c(=O)c3cnccc23)cc(OC)c1CN1CCC12CN(C(=O)CCOCCOc1cccc3c1C(=O)N(C1CCC(=O)NC1=O)C3=O)C2 (stereo not drawn)	in the range around 550 nM
COc1cc(-c2cn(C)c(=O)c3cnccc23)cc(OC)c1CN1CCC(COC2CCN(C(=O)CCOCCOc3ccc4c(c3)C(=O)N(C3CCC(=O)NC3=O)C4=O)C2)CC1 (stereo not drawn)	< 10 nM
COc1cc(-c2cn(C)c(=O)c3cnccc23)cc(OC)c1CN1CCC2(CCN(C(=O)CCOCCOc3ccc4c(c3)C(=O)N(C3CCC(=O)NC3=O)C4=O)C2)C1 (stereo not drawn)	in the range around 55 nM
COc1cc(-c2cn(C)c(=O)c3cnccc23)cc(OC)c1CN(C)C1CCC12CCN(C(=O)CCOCCOc1cccc3c1C(=O)N(C1CCC(=O)NC1=O)C3=O)CC2 (stereo not drawn)	in the range around 55 nM
COc1cc(-c2cn(C)c(=O)c3cnccc23)cc(OC)c1CN1CC2C1CCN2C(=O)CCOCCOc1cccc2c1C(=O)N(C1CCC(=O)NC1=O)C2=O (stereo not drawn)	< 10 nM
COc1cc(-c2cn(C)c(=O)c3cnccc23)cc(OC)c1CN(C)CCc1cn(CCCOc2ccc3c(c2)C(=O)N(C2CCC(=O)NC2=O)C3O)nn1 (stereo not drawn)	in the range around 550 nM
COc1cc(-c2cn(C)c(=O)c3cnccc23)cc(OC)c1CN1CCC2(CC1)CN(C(=O)CCOCCOc1ccc3c(c1)C(=O)N(C1CCC(=O)NC1=O)C3=O)C2 (stereo not drawn)	in the range around 55 nM
COc1cc(-c2cn(C)c(=O)c3cnccc23)cc(OC)c1CN1CCC2(CC1)CC(NC(=O)CCOCCOc1ccc3c(c1)C(=O)N(C1CCC(=O)NC1=O)C3=O)C2 (stereo not drawn)	in the range around 55 nM
COc1cc(-c2cn(C)c(=O)c3cnccc23)cc(OC)c1CN1CC2(CCN(C(=O)CCOCCOc3ccc4c(c3)C(=O)N(C3CCC(=O)NC3=O)C4=O)CC2)C1 (stereo not drawn)	in the range around 55 nM
COc1cc(-c2cn(C)c(=O)c3cnccc23)cc(OC)c1CN(C)CCc1cn(CCOc2ccc3c(c2)C(=O)N(C2CCC(=O)NC2=O)C3=O)nn1 (stereo not drawn)	in the range around 55 nM
COc1cc(-c2cn(C)c(=O)c3cnccc23)cc(OC)c1CN(C)CC1CC2(CCN(C(=O)CCOCCOc3cccc4c3C(=O)N(C3CCC(=O)NC3=O)C4=O)CC2)CO1 (stereo not drawn)	in the range around 55 nM
